Source: ChEMBL document CHEMBL5338747, “Discovery of Quaternized Pyridine-Thiazole-Pleuromutilin Derivatives with Broad-Spectrum Antibacterial and Potent Anti-MRSA Activity” (J Med Chem, 2023)

Legend:
Staphylococcus aureus [1] = assay: Antibacterial activity against methicillin-resistant Staphylococcus aureus ATCC 33591 assessed as inhibition of bacterial growth incubated for 24 hrs by broth microdilution method; type: functional
[2] = Aqueous solubility of the compound in physiological saline measured after 12 hrs by UV spectrophotometric analysis; type: physicochemical
Escherichia coli [3] = assay: Antibacterial activity against Escherichia coli CMCC 44103 assessed as inhibition of bacterial growth incubated for 24 hrs by broth microdilution method; type: functional
[4] = tested on: Staphylococcus epidermidis; assay: Antibacterial activity against methicillin-resistant Staphylococcus epidermidis ATCC 51625 assessed as inhibition of bacterial growth incubated for 24 hrs by broth microdilution method; type: functional
Acinetobacter baumannii = assay: Antibacterial activity against Acinetobacter baumannii ATCC 19606 assessed as inhibition of bacterial growth incubated for 24 hrs by broth microdilution method; type: functional
Staphylococcus aureus [5] = assay: Antibacterial activity against […] assessed as inhibition of bacterial growth incubated for 24 hrs by broth microdilution method; type: functional; conditions: ATCC 29213
Escherichia coli [6] = assay: Antibacterial activity against Escherichia coli ATCC 25922 assessed as inhibition of bacterial growth incubated for 24 hrs by broth microdilution method; type: functional
Staphylococcus aureus [7] = assay: Antibacterial activity against methicillin-resistant Staphylococcus aureus ATCC 43300 assessed as inhibition of bacterial growth incubated for 24 hrs by broth microdilution method; type: functional
Salmonella enterica = assay: Antibacterial activity against Salmonella enterica ATCC 14028 assessed as inhibition of bacterial growth incubated for 24 hrs by broth microdilution method; type: functional

SMILES	MIC (Staphylococcus aureus [1]) [µg/mL]	solubility at 12 h [2] [µM]	MIC (Escherichia coli [3]) [µg/mL]	MIC [4] [µg/mL]	MIC (Acinetobacter baumannii) [µg/mL]	MIC (Staphylococcus aureus [5]) [µg/mL]	MIC (Escherichia coli [6]) [µg/mL]	MIC (Staphylococcus aureus [7]) [µg/mL]	MIC (Salmonella enterica) [µg/mL]
C=C[C@]1(C)C[C@@H](OC(=O)CSc2nc(-c3cc[n+](CCCCCCCCCC)cc3)cs2)[C@]2(C)[C@H](C)CC[C@]3(CCC(=O)[C@H]32)[C@@H](C)[C@@H]1O.[Br-]	1	203	4	2	4	0.25	2	2	1
C=C[C@]1(C)C[C@@H](OC(=O)CSc2nnc(-c3cc[n+](Cc4ccccc4)cc3)o2)[C@]2(C)[C@H](C)CC[C@]3(CCC(=O)[C@H]32)[C@@H](C)[C@@H]1O.[Br-]	64	–	64	128	128	16	128	32	32
Br.C=C[C@]1(C)C[C@@H](OC(=O)CSc2nnc(-c3cc[n+](Cc4ccc([N+](=O)[O-])cc4)cc3)o2)[C@]2(C)[C@H](C)CC[C@]3(CCC(=O)[C@H]32)[C@@H](C)[C@@H]1O	32	–	128	32	64	32	> 128	64	128
C=C[C@]1(C)C[C@@H](OC(=O)CSc2nc(-c3cc[n+](Cc4ccc(-c5ccccc5)cc4)cc3)cs2)[C@]2(C)[C@H](C)CC[C@]3(CCC(=O)[C@H]32)[C@@H](C)[C@@H]1O.[Br-]	2	271	1	2	2	0.5	1	1	2
C=C[C@]1(C)C[C@@H](OC(=O)CSc2nc(-c3cc[n+](Cc4ccsc4)cc3)cs2)[C@]2(C)[C@H](C)CC[C@]3(CCC(=O)[C@H]32)[C@@H](C)[C@@H]1O.[Br-]	1	702	0.5	1	8	0.25	1	0.5	2
Br.C=C[C@]1(C)C[C@@H](OC(=O)CSc2nc(-c3cc[n+](Cc4ccc([N+](=O)[O-])o4)cc3)cs2)[C@]2(C)[C@H](C)CC[C@]3(CCC(=O)[C@H]32)[C@@H](C)[C@@H]1O	32	1650	64	8	16	4	8	8	32
C=C[C@]1(C)C[C@@H](OC(=O)CSc2nc(-c3cc[n+](Cc4cc(F)cc(F)c4)cc3)cs2)[C@]2(C)[C@H](C)CC[C@]3(CCC(=O)[C@H]32)[C@@H](C)[C@@H]1O.[Br-]	64	803	32	64	8	64	16	64	16
C=C[C@]1(C)C[C@@H](OC(=O)CSc2nc(-c3cc[n+](Cc4ccc(C#N)cc4)cc3)cs2)[C@]2(C)[C@H](C)CC[C@]3(CCC(=O)[C@H]32)[C@@H](C)[C@@H]1O.[Br-]	64	683	8	16	32	0.125	2	2	32
C=C[C@]1(C)C[C@@H](OC(=O)CSc2nc(-c3cc[n+](Cc4cc(C)cc(C)c4)cc3)cs2)[C@]2(C)[C@H](C)CC[C@]3(CCC(=O)[C@H]32)[C@@H](C)[C@@H]1O.[Br-]	64	543	32	128	8	128	32	128	16
C=C[C@]1(C)C[C@@H](OC(=O)CSc2nnc(-c3cc[n+](Cc4ccc(C)cc4)cc3)o2)[C@]2(C)[C@H](C)CC[C@]3(CCC(=O)[C@H]32)[C@@H](C)[C@@H]1O.[Br-]	16	–	64	64	128	4	32	16	32
C=C[C@]1(C)C[C@@H](OC(=O)CSc2nc(-c3cc[n+](CCCC)cc3)cs2)[C@]2(C)[C@H](C)CC[C@]3(CCC(=O)[C@H]32)[C@@H](C)[C@@H]1O.[Br-]	2	672	4	4	16	4	16	4	2
C=C[C@]1(C)C[C@@H](OC(=O)CSc2nc(-c3cc[n+](Cc4ccccc4)cc3)cs2)[C@]2(C)[C@H](C)CC[C@]3(CCC(=O)[C@H]32)[C@@H](C)[C@@H]1O.[Br-]	1	871	0.25	4	4	0.125	–	–	–
